# Legend:
# Plasmodium falciparum [1] = test: Antiplasmodial activity against Plasmodium falciparum NF54; assay type: functional, organism-based
# Plasmodium falciparum [2] = test: Antiplasmodial activity against Plasmodium falciparum gametocytes assessed as inhibition of gametocyte activation by [3H]hypoxanthine incorporation assay; assay type: functional, organism-based
# Plasmodium vinckei = test: Antimalarial activity against chloroquine resistant Plasmodium vinckei infected in po dosed swiss mouse assessed as reduction in parasitemia; assay type: functional
# [3] = tested on: Plasmodium vinckei petteri; test: Antimalarial activity against chloroquine sensitive Plasmodium vinckei petteri infected in po dosed swiss mouse assessed as reduction in parasitemia; assay type: functional
# Plasmodium falciparum [4] = test: Antiplasmodial activity against chloroquine resistant Plasmodium falciparum by HRP2 ELISA analysis; assay type: functional, organism-based
# Plasmodium falciparum [5] = test: Antimalarial activity against erythrocytic stage chloroquine sensitive Plasmodium falciparum 3D7 infected in mouse assessed as reduction in parasitemia at 4 mg/kg/day, po qd measured after 4 days by Giemsa staining based analysis relative to control; assay type: functional; set-up: scale not given: the % may be the effect or the level left; settings: time 4 day
# Plasmodium falciparum [6] = test: Antimalarial activity against erythrocytic stage chloroquine sensitive Plasmodium falciparum W2 infected in mouse assessed as reduction in parasitemia at 4 mg/kg/day, po qd measured after 4 days by Giemsa staining based analysis relative to control; assay type: functional; set-up: scale not given: the % may be the effect or the level left; settings: time 4 day
# Plasmodium falciparum [7] = test: Antimalarial activity against erythrocytic stage chloroquine sensitive Plasmodium falciparum W2 infected in mouse assessed as reduction in parasitemia at 54 mg/kg/day, po qd measured after 4 days by Giemsa staining based analysis relative to control; assay type: functional; set-up: scale not given: the % may be the effect or the level left; settings: time 4 day
# Plasmodium falciparum [8] = test: Antiplasmodial activity against Plasmodium falciparum W2; assay type: functional, organism-based
# HeLa = test: Antiproliferative activity against human HeLa cells assessed as cell growth inhibition; assay type: functional, cell-based; settings: Homo sapiens, HeLa
# Hemozoin = test: Inhibition of Beta-hematin in Plasmodium falciparum
# [9] = tested on: Plasmodium yoelii nigeriensis; test: Antiplasmodial activity against Plasmodium yoelii nigeriensis infected in sc dosed mouse assessed as reduction in parasitemia; assay type: functional
# Plasmodium falciparum [10] = test: Antimalarial activity against erythrocytic stage chloroquine sensitive Plasmodium falciparum 3D7 infected in mouse assessed as reduction in parasitemia at 15 mg/kg/day, po qd measured after 4 days by Giemsa staining based analysis relative to control; assay type: functional; set-up: scale not given: the % may be the effect or the level left; settings: time 4 day
# Plasmodium falciparum [11] = test: Antimalarial activity against erythrocytic stage chloroquine sensitive Plasmodium falciparum 3D7 infected in mouse assessed as reduction in parasitemia at 43 mg/kg/day, po qd measured after 4 days by Giemsa staining based analysis relative to control; assay type: functional; set-up: scale not given: the % may be the effect or the level left; settings: time 4 day
# Plasmodium falciparum [12] = test: Antimalarial activity against erythrocytic stage chloroquine sensitive Plasmodium falciparum W2 infected in mouse assessed as reduction in parasitemia at 43 mg/kg/day, po qd measured after 4 days by Giemsa staining based analysis relative to control; assay type: functional; set-up: scale not given: the % may be the effect or the level left; settings: time 4 day
# Plasmodium falciparum [13] = test: Antiplasmodial activity against Plasmodium falciparum TM91C235; assay type: functional, organism-based
# Plasmodium falciparum [14] = test: Antiplasmodial activity against Plasmodium falciparum 3D7; assay type: functional, organism-based
# [15] = Inhibition of Plasmodium falciparum falcipain-2
compound,measurement,setting,value
C[C@H]1[C@H](OC(=O)CCC(=O)O)O[C@@H]2O[C@@]3(C)CC[C@H]4[C@H](C)CC[C@@H]1[C@@]24OO3 [ARTESUNATE],IC50,Plasmodium falciparum [1],< 5.2 nM
same,IC50,Plasmodium falciparum [2],300000 nM
same,ED100,Plasmodium vinckei,100 mg/kg/day
same,ED100,[3],32 mg/kg/day
same,IC50,Plasmodium falciparum [4],2.34 nM
same,IC90,Plasmodium falciparum [4],6.46 nM
same,IC99,Plasmodium falciparum [4],0.0195 µM
same,Activity,Plasmodium falciparum [5],28%
same,Activity,Plasmodium falciparum [6],89%
same,Activity,Plasmodium falciparum [7],100%
CCN(CC)CCCC(C)Nc1ccnc2cc(Cl)ccc12 (stereo not drawn) [CHLOROQUINE],IC90,Plasmodium falciparum [8],18.6 nM
same,IC50,HeLa,8540 nM
same,IC50,Hemozoin,1.91 equiv
same,CD50,[9],7 mg/kg/day
same,CD90,[9],23 mg/kg/day
same,ED50,[9]; Plasmodium yoelii,5 mg/kg/day
same,ED90,[9]; Plasmodium yoelii,23 mg/kg/day
same,ED100,Plasmodium vinckei,>100 mg/kg/day
same,ED100,[3],16 mg/kg/day
same,IC90,Plasmodium falciparum [4],301 nM
same,IC99,Plasmodium falciparum [4],0.531 µM
same,Activity,Plasmodium falciparum [10],100%
same,Activity,Plasmodium falciparum [11],100%
same,Activity,Plasmodium falciparum [12],15%
same,IC90,Plasmodium falciparum [13],153 nM
CC(C)CN(NC(=O)C1CCC2(CC1)OOC1(OO2)C2CC3CC(C2)CC1C3)c1nc(C#N)ncc1Cl (stereo not drawn),IC50,Plasmodium falciparum [8],9.8 nM
same,IC50,Plasmodium falciparum [14],9.8 nM
same,IC50,[15],3.4 nM
